Results from patent US12629374B2, “Antimalarial agents” (Merck Sharp & Dohme LLC, priority 2020, dated 2026).

Test system: ring stage parasites
Assay: Parasite growth potency assay, 72 hours, LDH readout
Assay type: cell-based
Details: 72 h, parasite growth measured by LDH assay after 72 hours at 37° C.; 0.7% rings, 2% haematocrit; read-out: EC50
In short: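 Parasite growth was quantified by LDH assay after a −80 °C freeze-thaw. Before that, compound was incubated for 72 h at 37 °C under humidified gas with ring-stage cultures adjusted to 0.7% parasitemia and 2% haematocrit in serum- and albumax-supplemented RPMI-Hepes.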

Row | SMILES | EC50 [nM]
1 | CCC1(CC)CC(=O)N(C(CCOC)c2ccc(C(F)(F)F)c(C(=O)N[C@@H]3c4ccccc4OC[C@]3(C)O)c2)C(=N)N1 (stereo partly drawn) [Example 245, 5-[1-(4,4-diethyl-2-imino-6-oxo-hexahydropyrimidin-1-yl)-3-methoxy-propyl]-N-[(3R,4R)-3-hydroxy-3-methyl-chroman-4-yl]-2-(trifluoromethyl)benzamide] | 1.6
2 | CCC1(CC)CC(=O)N(C(CCOC)c2ccc(C(F)(F)F)c(C(=O)N[C@@H]3c4ccccc4OC(C)(C)[C@H]3O)c2)C(=N)N1 (stereo partly drawn) [Example 246, 5-[1-(4,4-diethyl-2-imino-6-oxo-hexahydropyrimidin-1-yl)-3-methoxy-propyl]-N-[(3S,4R)-3-hydroxy-2,2-dimethyl-chroman-4-yl]-2-(trifluoromethyl)benzamide] | 1.74
